Laboratory results taken from US6528523B2, “Farnesyl protein transferase inhibitors” (Schering Corporation, priority 2000, dated 2003).
pIC50: −log10 of the molar value.

Experiments:
[1] = target: T1, Farnesyl protein transferase (FPT) (Rattus norvegicus, UniProt Q02293+Q04631); assay: In vitro enzyme assay: inhibition of farnesyl protein transferase; format: biochemical; conditions: transfer of [3H]farnesyl from [3H]farnesyl pyrophosphate to Ras-CVLS
T1 construct: partially purified from rat brain by ammonium sulfate fractionation followed by Q-Sepharose; from tissue; host or cells: rat brain
T1 sequence (Q02293 whole entry, one chain of several): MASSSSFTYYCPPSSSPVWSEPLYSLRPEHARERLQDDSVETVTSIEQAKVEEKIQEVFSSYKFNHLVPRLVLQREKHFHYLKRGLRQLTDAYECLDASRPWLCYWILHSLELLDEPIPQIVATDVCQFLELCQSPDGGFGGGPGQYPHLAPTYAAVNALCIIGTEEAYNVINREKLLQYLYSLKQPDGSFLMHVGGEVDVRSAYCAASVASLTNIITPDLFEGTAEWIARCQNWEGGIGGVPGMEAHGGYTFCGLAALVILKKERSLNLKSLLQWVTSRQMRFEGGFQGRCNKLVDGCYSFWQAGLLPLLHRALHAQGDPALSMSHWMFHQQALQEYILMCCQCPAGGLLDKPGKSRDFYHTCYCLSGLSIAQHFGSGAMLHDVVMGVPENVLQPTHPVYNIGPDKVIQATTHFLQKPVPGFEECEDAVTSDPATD
Experimental: 1. In Vitro Enzyme Assay:
Human farnesyl protein transferase was also expressed in E. coli, using cDNA clones encoding both the a and b subunits. […] Human farnesyl protein transferase was partially-purified from the soluble protein fraction of E. coli as described above. […] Two forms of val^12-Ha-Ras protein were prepared as substrates for these enzymes, differing in their carboxy terminal sequence. One form terminated in cysteine-valine-leucine-serine (Ras-CVLS) the other in cystein-valine-leucine-leucine (Ras-CVLL). Ras-CVLS is a substrate for the farnesyl protein transferase while Ras-CVLL is a substrate for geranylgeranyl protein transferase I. The cDNAs encoding these proteins were constructed so that the proteins contain an amino-terminal extension of 6 histidine residues. Both proteins were expressed in Escherichia coli and purified using metal chelate affinity chromatography. The radio labelled isoprenyl pyrophosphate substrates, [^3H]farnesyl pyrophosphate and [^3H] geranylgeranyl pyrophosphate, were purchased from DuPont/New England Nuclear.
The reaction was allowed to proceed for 30 minutes at room temperature and then stopped with 0.5 ml of 4% sodium dodecyl sulfate (SDS) followed by 0.5 ml of cold 30% TCA. Samples were allowed to sit on ice for 45 minutes and precipitated Ras protein was then collected on GF/C filter paper mats using a Brandel cell harvester. […] Percent inhibition was calculated relative to the DMSO vehicle control.

[2] = test system: Human tumor cells; assay: Soft agar assay (anchorage-independent growth); format: cell-based; conditions: colony outgrowth 10-16 days
Experimental: Anchorage-independent growth is a characteristic of tumorigenic cell lines. Human tumor cells are suspended in growth medium containing 0.3% agarose and an indicated concentration of a farnesyl transferase inhibitor. The solution is overlayed onto growth medium solidified with 0.6% agarose containing the same concentration of farnesyl transferase inhibitor as the top layer. After the top layer is solidified, plates are incubated for 10-16 days at 37° C. under 5% CO2 to allow colony outgrowth. After incubation, the colonies are stained by overlaying the agar with a solution of MTT (3-[4,5-dimethylthiazol-2-yl]-2,5-diphenyltetrazolium bromide, Thiazolyl blue) (1 mg/mL in PBS). Colonies are counted and the IC50's determined.

| pIC50 [1] | pIC50 [2] | melting point [°C] | Compound |
| --- | --- | --- | --- |
| 9.49 | 7.52 | 137 to 139 | O=C(Cc1cc[n+]([O-])cc1)N1CCC(C2c3ncc(Br)cc3C=Cc3cc(Cl)cc(Br)c32)CC1 (single isomer, unassigned) [Compound 11] |
| < 7.77 |  | 142 to 143 | O=C(Cc1cc[n+]([O-])cc1)N1CCC(C2c3ncc(Br)cc3C=Cc3cc(Cl)cc(Br)c32)CC1 (single isomer, unassigned) [Compound 12] |
| 8.48 | < 6.30 | 84 to 85 | CS(=O)(=O)N1CCC(C2c3ncc(Br)cc3C=Cc3cc(Cl)cc(Br)c32)CC1 (single isomer, unassigned) [Compound 13] |
| < 7.74 |  | 91 to 92 | CS(=O)(=O)N1CCC(C2c3ncc(Br)cc3C=Cc3cc(Cl)cc(Br)c32)CC1 (single isomer, unassigned) [Compound 14] |
| 9.40 | 7.30 | 146 to 147 | NC(=O)N1CCC(CC(=O)N2CCC(C3c4ncc(Br)cc4C=Cc4cc(Cl)cc(Br)c43)CC2)CC1 (single isomer, unassigned) [Compound 15] |
| 7.80 |  | 142 to 143 | NC(=O)N1CCC(CC(=O)N2CCC(C3c4ncc(Br)cc4C=Cc4cc(Cl)cc(Br)c43)CC2)CC1 (single isomer, unassigned) [Compound 16] |
